Values quoted from earlier work in paper PMC11956011, “An Amazing 30-Year Journey around the DABO Family: A Medicinal Chemistry Lesson on a Versatile Class of Non-nucleoside HIV-1 Reverse Transcriptase Inhibitors” (Journal of Medicinal Chemistry, 2025).
pEC50, pIC50, pKi: −log10 of the molar value. Values belong to the compound of their own block, whether it stands above or below them.

Tests used:
[1] = tested on: HIV-1; design: method as in PMID 5787520; conditions: 3.5 μM; MoI = 5 CCID50/cell; 40 days
[2] = tested on: HIV-1 IIIB; design: method as in PMID 9748354, PMID 9554867; conditions: read-out: p24 inhibition in MT-4 infected cells, IC90: IIIB
[3] = tested on: DLV-R-MF (P236L); design: method as in PMID 9748354, PMID 9554867; conditions: read-out: p24 inhibition in MT-4 infected cells, IC90: DLV-R-MF (P236L)
[4] = tested on: Y181C HIV-1 RT; design: method as in PMID 9748354, PMID 9554867
[5] = tested on: R88703-R-IIIB (Y181C); design: method as in PMID 9748354, PMID 9554867; conditions: read-out: p24 inhibition in MT-4 infected cells, IC90: R88703-R-IIIB (Y181C)
[6] = tested on: DLV-R-IIIB (L100I); design: method as in PMID 9748354, PMID 9554867; conditions: read-out: p24 inhibition in MT-4 infected cells, IC90: DLV-R-IIIB (L100I)
[7] = tested on: P236L HIV-1 RT; design: method as in PMID 9748354, PMID 9554867
[8] = tested on: L-697661-R-IIIB (Y181C); design: method as in PMID 9748354, PMID 9554867; conditions: read-out: p24 inhibition in MT-4 infected cells, IC90: L-697661-R-IIIB (Y181C)
[9] = tested on: L100I HIV-1 RT
[10] = tested on: Y188H HIV-1 RT; design: method as in PMID 9748354, PMID 9554867
[11] = tested on: HIV-1 RT (WT, recombinant); conditions: Fig 4
[12] = tested on: E233V HIV-1 RT; design: method as in PMID 9748354, PMID 9554867
[13] = target: V106A HIV-1 RT; conditions: Fig 4
[14] = tested on: HIV-2ROD
[15] = design: method as in doi:10.1039/c3md00247k; conditions: mouse models
[16] = tested on: E138K HIV-1 mutant strain; conditions: Fig 12, in brackets
[17] = design: method as in doi:10.1039/c3md00247k, PMID 21752202; conditions: in vivo

SMILES: Cc1c(C(C)c2c(F)cccc2F)nc(N(C)C)[nH]c1=O (racemic) [compound 116]
water solubility (in words): scant water solubility
HIV-1 replication in acutely infected cultures after 4 h treatment [1]: totally suppressed HIV-1 replication

SMILES: C[C@H](Sc1nc(N)cc(Cl)n1)c1cc2ccoc2cn1 [compound 21, (−)-6-chloro-2-[(1-furo[2,3-c]pyridin-5-ylethyl)thio]-4-pyrimidinamine]
IC90 [2]: 0.001 µM
IC90 [3]: 0.008 µM
pIC50 [4]: 6.75
IC90 [5]: 0.17 µM
IC90 [6]: 0.07 µM
pIC50 [7]: 7.66
IC90 [8]: 1.1 µM
pIC50 [9]: 7.41
pIC50 [10]: 7.11
pIC50 ([11]; read-out: RT assay, IC50: WT): 7.70
pIC50 [12]: 7.77

SMILES: O=c1cc(Cc2ccccc2)nc(NCCCCO)[nH]1 [compound 23, 6-benzyl-N^2-(4-hydroxybutyl)isocytosine]
pKi [13]: 4.12
pKi ([9]; Fig 4): 3.28
pKi [11]: 3.85

pEC50 [14]: 5.07
SMILES: CCCN(C)c1nc(C(C)c2c(F)cccc2F)c(C)c(=O)[nH]1 (centres unmarked) [compound 119]

SMILES: Cc1c(C(C#N)c2c(F)cccc2F)nc(SC(C)C)[nH]c1=O (centres unmarked) [compound 153]
oral bioavailability (in words) [15]: optimal oral bioavailability
Fold-resistance E138K (EC50 vs HIV-1IIIB) [16]: 2.4
acute toxicity (in words) [17]: without acute toxicity
